Test results reported in patent US10092592B2, “Application of cyclic dinucleotide (cGAMP) in anti-tumor field” (FUDAN UNIVERSITY, priority 2014, dated 2018).

What was measured:
Type in all cases: in vivo
[1] = system: human colorectal carcinoma cell line Lovo; assay: Subcutaneously transplanted tumor of human colorectal carcinoma cell line Lovo in nude mice; conditions: Lovo in BALB/c nude mice; for Average Tumor Weight: mean ± SD, n = 8
Protocol: (§1) Anti-tumor effect of cGAMP (cyclized GMP-AMP) was detected by employing a tumor-bearing mouse model to test inhibition effect of cGAMP on subcutaneously transplanted tumor.
(§2) Animals: Nude mouse BALB/c, male, with a body weight of 16-18 g, 4-6 weeks old, SPF grade, purchased from SLAC LABORATORY ANIMAL [certification number: SCXK (Shanghai) 2007-0005].
(§3) Dose: cGAMP was injected into abdominal cavities of mice, and two dose groups were set as followed: 10 mg/kg and 40 mg/kg.
(§4) Experimental Controls: • Negative control: brine solution • Positive control: 5-fluorouracil (5-FU), with a dose of 20 mg/kg
(§5) Administration Method: • Administration route: administration by intraperitoneal injection • Administration frequency: once a day for 14 days • Number of each group of animals: 8
(§6) Tumor cell lines: human gastric carcinoma cell line MNK-45, human lung adenocarcinoma cell line A549, human colorectal carcinoma cell line Lovo, human hepatocellular carcinoma cell line SMMC-7721, human prostatic carcinoma cell line PC-3 and human pancreatic carcinoma cell SW1990, purchased from the Cell Bank of the Chinese Academy of Sciences, are included in the above mentioned tumor cell lines.
(§7) 1. establishing a tumor-bearing mouse model and allowing intervention, including: cultivating and passaging cells, collecting cells in logarithmic phase, and making into a cell suspension with a concentration of 1.0×10^7/ml, injecting 0.2 ml of the cell suspension into the nude mice through their right arm armpits to make them get a tumor, and randomly dividing the nude mice into four groups: a negative control which is a group injected with brine through intraperitoneal injection, a 5-FU group which is a group injected with 5-FU through intraperitoneal injection, a cGMP-AMP low-dose group which is a group injected with 10 mg/kg of cGMP-AMP through intraperitoneal injection, and a cGMP-AMP high-dose group which is a group injected with 40 mg/kg of cGMP-AMP through intraperitoneal injection, administrating once a day for 14 days, then killing the nude mice and weighing the wts. Of tumor and calculating a tumor inhibition rate, which is calculated by the following equation: tumor inhibition rate[1−average tumor weight of experimental groups/average tumor weight of A group]×100%, wherein the experimental groups are B, C and D groups; separately establishing 6 subcutaneously implanted tumor models: human gastric carcinoma cell line MNK-45, human lung adenocarcinoma cell line A549, human colorectal carcinoma cell line Lovo, human hepatocellular carcinoma cell line SMMC-7721, human prostatic carcinoma cell line PC-3 and human pancreatic carcinoma cell SW1990, and observing the effect of cGAMP; and
(§8) 2. allowing statistical analysis: representing the data by x±s, processing the data with a software SPSS-10.0, analyzing by one-way ANOVA, comparing the significance of tumor weight differences among the groups, wherein the level of significance is a=0.05.

[2] = system: human prostatic carcinoma cell line PC-3; assay: Subcutaneously transplanted tumor of human prostatic carcinoma cell line PC-3 in nude mice; conditions: PC-3 in BALB/c nude mice; for Average Tumor Weight: mean ± SD, n = 8
Protocol: as §1, §2, §3, §4, §5, §6, §7, §8

[3] = system: human pancreatic carcinoma cell SW1990; assay: Subcutaneously transplanted tumor of human pancreatic carcinoma cell SW1990 in nude mice; conditions: SW1990 in BALB/c nude mice; for Average Tumor Weight: mean ± SD, n = 8
Protocol: as §1, §2, §3, §4, §5, §6, §7, §8

[4] = system: human gastric carcinoma cell line MNK-45; assay: Subcutaneously transplanted tumor of human gastric carcinoma cell line MNK-45 in nude mice; conditions: MNK-45 in BALB/c nude mice; for Average Tumor Weight: mean ± SD, n = 8
Protocol: as §1, §2, §3, §4, §5, §6, §7, §8

[5] = system: human lung adenocarcinoma cell line A549; assay: Subcutaneously transplanted tumor of human lung adenocarcinoma cell line A549 in nude mice; conditions: A549 in BALB/c nude mice; for Average Tumor Weight: mean ± SD, n = 8
Protocol: as §1, §2, §3, §4, §5, §6, §7, §8

[6] = system: human hepatocellular carcinoma cell line SMMC-7721; assay: Subcutaneously transplanted tumor of human hepatocellular carcinoma cell line SMMC-7721 in nude mice; conditions: SMMC-7721 in BALB/c nude mice; for Average Tumor Weight: mean ± SD, n = 8
Protocol: as §1, §2, §3, §4, §5, §6, §7, §8

ICR mice = assay: Acute toxicity, single tail intravenous injection
Protocol: The materials are 20 of ICR mice, which are purchased from SLAC LABORATORY ANIMAL [certification number: SCXK (Shanghai) 2007-0005], are half male and half female, have body weights within 18-22 g, are fed with granular feedstuff and are free to find food and drink.
The method includes: subjecting the ICR mice to single tail intravenous injection of 10 ml/kg cGMAP based on their body weights, namely 2 g/kg, observing toxic reactions and deaths after administration within 14 days.

[7] = 20 mg/kg intraperitoneal once a day for 14 days
[8] = high dose 40 mg/kg intraperitoneal once a day for 14 days
[9] = low dose 10 mg/kg intraperitoneal once a day for 14 days
[10] = single tail intravenous injection 2 g/kg (10 ml/kg)

## O=c1[nH]cc(F)c(=O)[nH]1 [5-FU, 5-fluorouracil, reference compound]
[1]; [7]
  Average Tumor Inhibition Rate: 71.7%
  Average Tumor Weight: 0.769 ± 0.101 (g)
[2]; [7]
  Average Tumor Inhibition Rate: 76.3%
  Average Tumor Weight: 0.728 ± 0.102 (g)
[3]; [7]
  Average Tumor Inhibition Rate: 76.8%
  Average Tumor Weight: 0.685 ± 0.086 (g)
[4]; [7]
  Average Tumor Inhibition Rate: 76.9%
  Average Tumor Weight: 0.619 ± 0.214 (g)
[5]; [7]
  Average Tumor Inhibition Rate: 70.3%
  Average Tumor Weight: 0.843 ± 0.210 (g)
[6]; [7]
  Average Tumor Inhibition Rate: 72.7%
  Average Tumor Weight: 0.853 ± 0.082 (g)

## Nc1nc2c(ncn2[C@@H]2O[C@@H]3COP(=O)(O)O[C@H]4[C@@H](O)[C@H](n5cnc6c(N)ncnc65)O[C@@H]4COP(=O)(O)O[C@@H]2[C@@H]3O)c(=O)[nH]1 [cGAMP, cyclized GMP-AMP]
[1]; [8]
  Average Tumor Inhibition Rate: 55.7%
  Average Tumor Weight: 1.204 ± 0.122 (g)
[1]; [9]
  Average Tumor Inhibition Rate: 36.9%
  Average Tumor Weight: 1.714 ± 0.137 g
[2]; [8]
  Average Tumor Inhibition Rate: 69.6%
  Average Tumor Weight: 0.932 ± 0.148 g
[2]; [9]
  Average Tumor Inhibition Rate: 52.2%
  Average Tumor Weight: 1.467 ± 0.201 (g)
[3]; [8]
  Average Tumor Inhibition Rate: 67.4%
  Average Tumor Weight: 0.964 ± 0.109 g
[3]; [9]
  Average Tumor Inhibition Rate: 44.8%
  Average Tumor Weight: 1.631 ± 0.133 (g)
ICR mice; [10]
  deaths within 14 days after administration: no death was observed
  pathological changes in organs by naked eyes on dissection, 15th day: no obvious pathological changes in organs were observed
  toxic reactions after the single tail intravenous injection: normal physiological activity was observed
ICR mice; single tail intravenous injection, observed 14 days
  maximum tolerated dose of intravenous injection MTD: not less than 2 g/kg
[4]; [8]
  Average Tumor Inhibition Rate: 61.3%
  Average Tumor Weight: 1.037 ± 0.198 (g)
[4]; [9]
  Average Tumor Inhibition Rate: 38.7%
  Average Tumor Weight: 1.641 ± 0.175 (g)
[5]; [8]
  Average Tumor Inhibition Rate: 59.4%
  Average Tumor Weight: 1.151 ± 0.121 (g)
[5]; [9]
  Average Tumor Inhibition Rate: 44.9%
  Average Tumor Weight: 1.562 ± 0.102 (g)
[6]; [8]
  Average Tumor Inhibition Rate: 65.2%
  Average Tumor Weight: 1.089 ± 0.130 g
[6]; [9]
  Average Tumor Inhibition Rate: 38.7%
  Average Tumor Weight: 1.916 ± 0.174 (g)
